The subject of one experiment is SK-BR-3. The experiment is described as follows: Cytotoxicity against human SK-BR-3 cells assessed as cell growth inhibition incubated for 72 hrs by CellTiter-Glo assay. The class given is functional.
The subject of another experiment is BT-474. Description: Anticancer activity against human BT-474 assessed as cell growth inhibition incubated for 4 days by WST-8 assay. As to conditions: BT-474, 96 h, time 4 day. The class given is functional. For orientation: Tetrazolium dyes change colour on reduction, which living cells bring about.
The next experiment deals with MOLM-13. The experiment is described as follows: Cytotoxicity against human MOLM-13 cells assessed as cell growth inhibition. The class given is functional, cell-based.
Experiment [1] relates to H3396. Description: Cytotoxicity against human H3396 cells assessed as cell growth inhibition measured after 96 hrs by resazurin dye based assay. The class given is functional. Background: Alamar Blue is a resazurin reagent that responds to reducing activity.
A further experiment relates to HCT-116. The experiment is described as follows: Cytotoxicity against human HCT-116 cells assessed as cell growth inhibition measured after 96 hrs by resazurin dye based assay. In kind it is functional.
Another experiment deals with HT-29. Description: Cytotoxicity against human HT-29 cells assessed as cell growth inhibition. In kind it is functional, cell-based.
The next experiment relates to L1210. Description: Cytotoxicity against mouse L1210 cells assessed as cell growth inhibition measured after 24 hrs. The settings on record: L1210, 24 h. In kind it is functional, cell-based.
Experiment [2] has as its system Panel NCI-60 (60 carcinoma cell lines). Description: Cytotoxicity against human Panel NCI-60 (60 carcinoma cell lines) assessed as cell growth inhibition. In kind it is functional, cell-based.
The test system of experiment [3] is H3396. Description: Cytotoxicity against human H3396 cells assessed as cell growth inhibition. In kind it is functional, cell-based.

Molecules are shown by their SMILES. Starred links: 1 amine or outer side, 2 acyl side, 3 side chain; linkers in the order of their positions; H or OH if unused. Non-standard residues stand in square brackets, D forms with d. Residues, ends and D or L forms follow the SMILES beside them. *: point of attachment. X2 = CO[C@H]([C@@H](C)C(=O)[*:2])[C@@H]1C[C@@H]2C[C@@H]2N1[*:1]; Dolaproine = CO[C@@H]([C@@H]1CCCN1)[C@@H](C)C(=O)O; Dil = CC[C@H](C)[C@H](NC)[C@@H](CC(=O)O)OC; Phe(2-Cl) = N[C@@H](Cc1ccccc1Cl)C(=O)O; Phe(2-F) = N[C@@H](Cc1ccccc1F)C(=O)O; NMe2Val = CC(C)[C@@H](C(=O)*)N(C)C; X4 = C1=C[C@H]2CC[C@@H]1N(*)O2; NMeV = CN[C@H](C(=O)O)C(C)C; NHOH = ON*

The term GI50 denotes the concentration that inhibits growth by half. Consider `CC[C@H](C)[C@@H]([C@@H](CC(=O)N1CCC[C@H]1[C@H](OC)[C@@H](C)C(=O)N[C@@H](Cc1ccccc1F)C(=O)O)OC)N(C)C(=O)[C@@H](NC(=O)[C@@H](NC)C(C)C)C(C)C` (H-[NMeV]V[Dil][Dolaproine][Phe(2-F)]-OH), for which the GI50 in the experiment with SK-BR-3 was determined as 81.6 nM. On to `CC[C@H](C)[C@@H]([C@@H](CC(=O)N1C[C@@H](OC)C[C@H]1[C@H](OC)[C@@H](C)C(=O)NCCc1ccccc1)OC)N(C)C(=O)[C@@H](NC(=O)[C@H](C(C)C)N(C)C)C(C)C`, for which the GI50 in the experiment on BT-474 came to 0.24 nM. As to `CC[C@H](C)[C@@H]([C@@H](CC(=O)N1C[C@@H](N=[N+]=[N-])C[C@H]1[C@H](OC)[C@@H](C)C(=O)N[C@@H](Cc1ccccc1)C(=O)OC)OC)N(C)C(=O)[C@@H](NC(=O)[C@H](C(C)C)N(C)C)[C@H](C)N=[N+]=[N-]`, the GI50 in the experiment on MOLM-13 was 0.057 nM. With `CCOP(=O)(OCC)[C@H](Cc1ccccc1)NC(=O)[C@H](C)[C@@H](OC)[C@@H]1CCCN1C(=O)C[C@@H](OC)[C@H]([C@@H](C)CC)N(C)C(=O)[C@@H](NC(=O)[C@H](C(C)C)N(C)C)C(C)C`, the GI50 in the experiment with H3396 [1] turned out to be 0.09 nM; in the experiment on HCT-116, 6 nM. Broadly, the IC50 is the concentration that gives 50% inhibition. Consider `CC[C@H](C)[C@@H]([C@@H](CC(=O)N1CCC[C@H]1[C@H](OC)[C@@H](C)C(=O)N[C@H](/C=C/c1ccccc1)Cc1ccccc1)OC)N(C)C(=O)[C@@H](NC(=O)[C@H](C(C)C)N(C)CCCC(=O)O)C(C)C`, for which the IC50 with HT-29 came to 0.3 nM. Consider `CC[C@H](C)[C@@H]([C@@H](CC(=O)N1[C@H]2C[C@H]2C[C@H]1[C@H](OC)[C@@H](C)C(=O)N[C@@H](Cc1ccccc1Cl)C(=O)O)OC)N(C)C(=O)[C@@H](NC(=O)[C@@H](NC)C(C)C)C(C)C` (H-[NMeV]V[Dil][X2][Phe(2-Cl)]-OH), for which the GI50 in the experiment with SK-BR-3 is 1.06 nM.

`CC[C@H](C)[C@@H]([C@@H](CC(=O)N1CCC[C@H]1[C@H](OC)[C@@H](C)C(=O)NC1(C(=O)N2Cc3ccccc3CO2)C[C@@H]1c1ccccc1)OC)N(C)C(=O)[C@@H](NC(=O)[C@H](C(C)C)N(C)C)C(C)C` (some centres not stated): the IC50 with HT-29 was 1.2 nM. As to `CC[C@H](C)[C@@H]([C@@H](CC(=O)N1CCC[C@H]1[C@H](OC)[C@@H](C)C(=O)N[C@@H](Cc1ccccc1)C(=O)N1O[C@H]2C=C[C@@H]1CC2)OC)N(C)C(=O)[C@@H](NC(=O)[C@H](C(C)C)N(C)C)C(C)C` (NMe2Val-V[Dil][Dolaproine]F-X4), in the experiment on HT-29, the IC50 came out at 0.5 nM. `CC[C@H](C)[C@@H]([C@@H](CC(=O)N1CCC[C@H]1[C@H](OC)[C@@H](C)C(=O)NC1(C(=O)N2CCCCO2)C[C@@H]1c1ccccc1)OC)N(C)C(=O)[C@@H](NC(=O)[C@H](C(C)C)N(C)C)C(C)C` (some centres not stated): in the experiment with HT-29, the IC50 is 0.5 nM.

Consider `CC[C@H](C)[C@@H]([C@@H](CC(=O)N1CCC[C@H]1/C=C(\C)C(=O)N[C@@H](Cc1ccccc1)c1nccs1)OC)N(C)C(=O)[C@@H](NC(=O)[C@H](C(C)C)N(C)C)C(C)C`, for which the IC50 in the experiment with L1210 is greater than 10 µM. As for `CC[C@H](C)[C@@H]([C@@H](CC(=O)N1CCC[C@H]1[C@H](OC)[C@@H](C)C(=O)N[C@@H](CC(C)C)C(=O)NO)OC)N(C)C(=O)[C@@H](NC(=O)[C@H](C(C)C)N(C)C)C(C)C` (NMe2Val-V[Dil][Dolaproine]L-{NHOH}), the GI50 in the experiment on SK-BR-3 was 3 nM. With `CC[C@H](C)[C@@H]([C@@H](CC(=O)N1C[C@@H](F)C[C@H]1[C@H](OC)[C@@H](C)C(=O)N[C@@H](Cc1ccccc1)C(=O)O)OC)N(C)C(=O)[C@@H](NC(=O)[C@@H](NC)C(C)C)C(C)C` (HELM PEPTIDE1{[meV].V.[CC[C@H](C)[C@@H]([C@@H](CC(=O)[*:2])OC)N(C)[*:1]].[CO[C@H]([C@@H](C)C(=O)[*:2])[C@@H]1C[C@H](F)CN1[*:1]].F}$$$$V2.0), the GI50 with SK-BR-3 amounted to 81.7 nM. For `CC[C@H](C)[C@@H]([C@@H](CC(=O)N1C[C@@H](NC)C[C@H]1[C@H](OC)[C@@H](C)C(=O)NCCc1c(F)cccc1F)OC)N(C)C(=O)[C@@H](NC(=O)[C@H](C(C)C)N(C)C)C(C)C`, the GI50 in the experiment with BT-474 came to 0.34 nM. In the case of `CC[C@H](C)[C@@H]([C@@H](CC(=O)N1CCC[C@H]1[C@H](OC)[C@@H](C)C(=O)N[C@@H](Cc1ccccc1)C(=O)OC)OC)N(C)C(=O)[C@@H](NC(=O)[C@H](C(C)C)N(C)C)C(C)C` (NMe2Val-V[Dil][Dolaproine]F-OMe), the GI50 in experiment [2] was determined as 0.2 nM. For the compound `CC[C@H](C)[C@@H]([C@@H](CC(=O)N1CCC[C@H]1[C@H](OC)[C@@H](C)C(=O)N[C@@H](Cc1ccccc1)C(=O)OC)OC)N(C)C(=O)[C@@H](NC(=O)[C@@H](NC)C(C)C)C(C)C` (H-[NMeV]V[Dil][Dolaproine]F-OMe), the IC50 with H3396 [3] is less than 1 pM. Take `CC[C@H](C)[C@@H]([C@@H](CC(=O)N1[C@H]2C[C@H]2C[C@H]1[C@H](OC)[C@@H](C)C(=O)N[C@@H](Cc1ccccc1)C(=O)O)OC)N(C)C(=O)[C@@H](NC(=O)[C@@H](NC)C(C)C)C(C)C` (HELM PEPTIDE1{[meV].V.[CC[C@H](C)[C@@H]([C@@H](CC(=O)[*:2])OC)N(C)[*:1]].[CO[C@H]([C@@H](C)C(=O)[*:2])[C@@H]1C[C@@H]2C[C@@H]2N1[*:1]].F}$$$$V2.0): in the experiment on SK-BR-3, the GI50 is 1.11 nM.

The values above are taken from ChEMBL document CHEMBL5150014, “Discovery and Development of Dolastatin 10-Derived Antibody Drug Conjugate Anticancer Drugs” (J Nat Prod, 2022).
